Test results published in patent publication US20160002267A1, “BENZYL-SUBSTITUTED PYRAZOLOPYRIDINES AND USE THEREOF” (BAYER PHARMA AKTIENGESELLSCHAFT, priority 2013, published 2016).

Biological target: T1, guanylate cyclase (Rattus norvegicus, UniProt P19686+P20595)
T1 construct: expressed in transfected cells; host or cells: recombinant reporter cell line
T1 sequence (P20595 1-619): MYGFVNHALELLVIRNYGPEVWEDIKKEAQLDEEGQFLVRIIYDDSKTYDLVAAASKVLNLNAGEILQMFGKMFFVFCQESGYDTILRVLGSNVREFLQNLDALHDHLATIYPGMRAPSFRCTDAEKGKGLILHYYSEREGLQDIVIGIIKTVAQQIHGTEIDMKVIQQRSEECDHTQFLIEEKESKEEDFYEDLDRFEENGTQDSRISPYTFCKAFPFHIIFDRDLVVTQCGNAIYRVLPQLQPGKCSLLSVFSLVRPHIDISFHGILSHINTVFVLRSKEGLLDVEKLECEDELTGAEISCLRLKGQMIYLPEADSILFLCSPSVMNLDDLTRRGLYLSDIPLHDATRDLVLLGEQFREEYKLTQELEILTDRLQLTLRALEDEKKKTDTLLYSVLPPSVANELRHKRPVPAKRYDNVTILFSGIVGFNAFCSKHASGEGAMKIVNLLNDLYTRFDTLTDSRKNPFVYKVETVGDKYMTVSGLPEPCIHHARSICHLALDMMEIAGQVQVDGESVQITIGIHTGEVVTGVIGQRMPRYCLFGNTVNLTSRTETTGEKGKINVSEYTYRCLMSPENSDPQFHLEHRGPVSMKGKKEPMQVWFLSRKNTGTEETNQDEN
T1 sequence (P19686 1-690): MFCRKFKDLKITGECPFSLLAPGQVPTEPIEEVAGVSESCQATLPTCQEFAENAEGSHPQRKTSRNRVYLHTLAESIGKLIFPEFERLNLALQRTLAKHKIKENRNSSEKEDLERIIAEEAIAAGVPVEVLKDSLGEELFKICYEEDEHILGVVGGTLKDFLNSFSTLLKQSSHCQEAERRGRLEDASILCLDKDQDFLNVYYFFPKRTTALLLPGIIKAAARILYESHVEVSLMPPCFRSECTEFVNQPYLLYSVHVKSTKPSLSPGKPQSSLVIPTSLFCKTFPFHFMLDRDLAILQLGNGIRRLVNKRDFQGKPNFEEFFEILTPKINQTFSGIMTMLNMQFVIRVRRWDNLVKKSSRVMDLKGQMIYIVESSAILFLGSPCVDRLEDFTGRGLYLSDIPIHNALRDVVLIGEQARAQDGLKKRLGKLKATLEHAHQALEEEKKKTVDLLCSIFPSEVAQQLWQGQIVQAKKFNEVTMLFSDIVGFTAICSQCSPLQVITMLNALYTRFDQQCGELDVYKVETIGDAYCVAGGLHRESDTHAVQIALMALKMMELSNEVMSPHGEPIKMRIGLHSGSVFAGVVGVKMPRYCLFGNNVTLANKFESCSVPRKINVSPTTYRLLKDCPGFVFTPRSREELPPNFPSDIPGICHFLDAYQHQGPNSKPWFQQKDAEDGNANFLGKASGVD
Experiment: Effect on a recombinant guanylate cyclase reporter cell line
Format: cell-based
Procedure: The cellular activity of the compounds according to the invention is determined using a recombinant guanylate cyclase reporter cell line, as described in F. Wunder et al., Anal. Biochem. 339, 104-112 (2005).

CC1(C(F)(F)F)C(=O)Nc2nc(-c3nn(Cc4ccccc4F)c4ncc(F)cc34)nc(NCCC(F)(F)F)c21 (single isomer, unassigned) [Example 1-2, 2-[5-Fluoro-1-(2-fluorobenzyl)-1H-pyrazolo[3,4-b]pyridin-3-yl]-5-methyl-5-(trifluoromethyl)-4-[(3,3,3-trifluoropropyl)amino]-5,7-dihydro-6H-pyrrolo[2,3-d]pyrimidin-6-one]
MEC (minimum effective concentration): 0.3 µM
